The source of these data is US7645758B2, “Heterocyclic compounds” (Janssen Pharmaceutica, N.Y., priority 2002, dated 2010).

The target in experiment [1] is T1, human histamine H4 receptor (Homo sapiens, UniProt Q9H3N8).
T1 construct: expressed in transfected cells; host or cells: SK-N-MC or COS7 cells, transiently transfected with pH4R; cell membranes
As to the kind of experiment: Binding assay on recombinant human histamine H4 receptor.

In another experiment the test system is Mast cells. Description: Mast cell chemotaxis assay. Type of experiment: cell-based. Particulars: 10 μM Histamine. Here is the method: Mast Cell Chemotaxis Assay
Mast cell accumulation in mucosal epithelia is a well-known characteristic of allergic rhinitis and asthma. Transwells (Costar, Cambridge, Mass.) of a pore size 8 μm were coated with 100 μL of 100 ng/mL human fibronectin (Sigma) for 2 h at room temperature. […] Mast cells (2×10^5/well) were added to the top chamber. The plates were incubated for 3 h at 37° C. Transwells were removed and the cells in the bottom chamber were counted for sixty seconds using a flow cytometer.

The next experiment deals with human eosinophils. As to the kind of experiment: Inhibition of eosinophil shape change (GAFS). It counts as cell-based. Particulars: for effect on histamine-induced shape change: H1 or H2 specific antagonist. Here is the method:
Eosinophil accumulation in sites of allergic reaction is a well-known characteristic of allergic rhinitis and asthma. […] Shape change is a cellular characteristic that precedes eosinophil chemotaxis.
Human granulocytes were isolated from human blood by a Ficoll gradient. The red blood cells were lysed with 5-10× Qiagen lysis buffer at room temperature for 5-7 min. Granulocytes were harvested and washed once with FACS buffer. The cells were resuspended at a density of 2×10^6 cells/mL in reaction buffer. […] Ten minutes later the cells were transferred to ice and fixed with 250 μL of ice-cold fixative buffer (2% formaldehyde) for 1 min.

[2] abbreviates: 3H-histamine competition, membranes of SK-N-MC or COS7 cells expressing human H4, read-out: Ki.
The mark [3] stands for this setting: repeated in the chemotaxis table, read-out: Binding Assay Ki.
Where [4] appears, read: Histamine 0 μM, 10 μM HR antagonist.
The mark [5] stands for this setting: Histamine 0.01 μM, 10 μM HR antagonist.
Setting [6] is: Histamine 0.1 μM, 10 μM HR antagonist.
[7] abbreviates: Histamine 1 μM, 10 μM HR antagonist.
Where [8] appears, read: Histamine 10 μM, 10 μM HR antagonist.

Each structure is given as a SMILES string. Read-outs that look alike come from different tables or passages of the source. Bounds are passed on as bounds.

T1 sequence (Q9H3N8 whole entry): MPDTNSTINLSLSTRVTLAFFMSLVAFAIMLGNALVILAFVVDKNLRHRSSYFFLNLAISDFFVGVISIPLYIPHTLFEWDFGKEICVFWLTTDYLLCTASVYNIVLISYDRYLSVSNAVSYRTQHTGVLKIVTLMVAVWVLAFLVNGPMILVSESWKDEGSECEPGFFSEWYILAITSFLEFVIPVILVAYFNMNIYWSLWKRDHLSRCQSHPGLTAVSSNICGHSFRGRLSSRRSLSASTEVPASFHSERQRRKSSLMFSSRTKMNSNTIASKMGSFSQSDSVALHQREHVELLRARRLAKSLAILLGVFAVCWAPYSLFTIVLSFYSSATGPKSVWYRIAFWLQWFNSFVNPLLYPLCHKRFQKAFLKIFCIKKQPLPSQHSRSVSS

Take `CN1CCN(C(=O)c2cc3ccsc3[nH]2)CC1` [Example 1, (4-Methyl-piperazin-1-yl)-(6H-thieno[2,3-b]pyrrol-5-yl)-methanone]: the Ki (usually the dissociation constant of the complex between target and ligand, obtained from inhibition or displacement) in experiment [1] (setting [2]) was determined as 85 nM.
Turning to `O=C(c1cc2cc(Cl)sc2[nH]1)N1CCNCC1` [Example 5, (2-Chloro-6H-thieno[2,3-b]pyrrol-5-yl)-piperazin-1-yl-methanone], the inhibitory constant (Ki) in experiment [1] (setting [2]) is 56 nM.
On to `CC1CN(C(=O)c2cc3scc(Br)c3[nH]2)CCN1` (stereo not shown) [Example 20, (3-Bromo-4H-thieno[3,2-b]pyrrol-5-yl)-(3-methyl-piperazin-1-yl)-methanone], for which the Ki in experiment [1] (setting [2]) and in experiment [1] (setting [3]) was 980 nM throughout. For the same compound, the “% Inh” value in the experiment on Mast cells (HR Antagonist 1 μM) and in the experiment on Mast cells (HR Antagonist 10 μM) was less than 5% throughout.
As to `Cc1cc2[nH]c(C(=O)N3CCNCC3)cc2o1` [Example 18, (2-Methyl-4H-furo[3,2-b]pyrrol-5-yl)-piperazin-1-yl-methanone], the inhibitory constant (Ki) in experiment [1] (setting [2]) was determined as 770 nM.
For the compound `Cc1cc2[nH]c(C(=O)N3CCN(C)CC3)cc2o1` [Example 14, (2-Methyl-4H-furo[3,2-b]pyrrol-5-yl)-(4-methyl-piperazin-1-yl)-methanone], the inhibition constant (Ki) in experiment [1] (setting [2]) came to 343 nM.
`CNC(=C[N+](=O)[O-])NCCSCc1ccc(CN(C)C)o1` [ranatidine]: the “effect on histamine-induced shape change” value with human eosinophils is recorded as “did not alter”. The “Fold Change” value in the experiment with human eosinophils (setting [4]) was determined as 1.00; in the experiment with human eosinophils (setting [5]), 1.04; in the experiment with human eosinophils (setting [6]), 1.21; in the experiment on human eosinophils (setting [7]) it was 1.49; with human eosinophils (setting [8]), 1.64.
In the case of `Cc1csc2cc(C(=O)N3CCNCC3)[nH]c12` [Example 21, (3-Methyl-4H-thieno[3,2-b]pyrrol-5-yl)-piperazin-1-yl-methanone], the Ki in experiment [1] (setting [2]) turned out to be 80 nM.
Regarding `Cc1csc2cc(C(=O)N3CCNC(C)C3)[nH]c12` (stereo not shown) [Example 22, (3-Methyl-piperazin-1-yl)-(3-methyl-4H-thieno[3,2-b]pyrrol-5-yl)-methanone], the Ki in experiment [1] (setting [2]) was determined as 161 nM.
Consider `NCCc1c[nH]cn1` [Histamine, histamine], for which the “Fold Change” value with human eosinophils (Histamine 0.01 μM, No HR Antagonist) amounted to 1.01; in the experiment with human eosinophils (Histamine 0.1 μM, No HR Antagonist) it was 1.21; in the experiment on human eosinophils (Histamine 1 μM, No HR Antagonist) it was 1.31; with human eosinophils (Histamine 10 μM, No HR Antagonist) it was 1.34. The “shape change in eosinophils” value with human eosinophils (histamine alone) is listed as “induces a dose-dependent shape change”.
Consider `CC1CN(C(=O)c2cc3sccc3[nH]2)CCN1` (stereo not shown) [Example 9, (3-Methyl-piperazin-1-yl)-(4H-thieno[3,2-b]pyrrol-5-yl)-methanone], for which the Ki in experiment [1] (setting [2]) was 733 nM.
On the same count and under the same terms, to `CN1CCN(C(=O)c2cc3scc(Br)c3[nH]2)CC1` [Example 12, (3-Bromo-4H-thieno[3,2-b]pyrrol-5-yl)-(4-methyl-piperazin-1-yl)-methanone] belongs 56 nM.
Still for that read-out and setting: with `Cc1sc2cc(C(=O)N3CCN(C)CC3)[nH]c2c1C` [Example 16, (2,3-Dimethyl-4H-thieno[3,2-b]pyrrol-5-yl)-(4-methyl-piperazin-1-yl)-methanone] the figure was 5 nM.
In the case of `CN1CCN(C(=O)c2cc3sccc3[nH]2)CC1` [Example 7, (4-Methyl-piperazin-1-yl)-(4H-thieno[3,2-b]pyrrol-5-yl)-methanone], the Ki in experiment [1] (setting [2]) was 125 nM.
On the same count and under the same terms, to `O=C(c1cc2ccsc2[nH]1)N1CCN2CCCC2C1` (stereo not shown) [Example 2, (Hexahydro-pyrrolo[1,2-a]pyrazin-2-yl)-(6H-thieno[2,3-b]pyrrol-5-yl)-methanone] belongs 461 nM.
For `O=C(c1cc2cc(Cl)sc2[nH]1)N1CCN2CCCC2C1` (stereo not shown) [Example 4, (2-Chloro-6H-thieno[2,3-b]pyrrol-5-yl)-(hexahydro-pyrrolo[1,2-a]pyrazin-2-yl)-methanone], the Ki in experiment [1] (setting [2]) and in experiment [1] (setting [3]) was 176 nM in each case. The “% Inh” value in the experiment on Mast cells (HR Antagonist 1 μM) and with Mast cells (HR Antagonist 10 μM) was less than 5% each time.
`Cc1c(Cl)sc2cc(C(=O)N3CCNCC3)[nH]c12` [Example 24, (2-Chloro-3-methyl-4H-thieno[3,2-b]pyrrol-5-yl)-piperazin-1-yl-methanone]: the inhibitory constant (Ki) in experiment [1] (setting [2]) turned out to be 30 nM.
In the case of `CN1CCN(C(=O)c2cc3c(Cl)c(Cl)sc3[nH]2)CC1` [Example 17, (2,3-Dichloro-6H-thieno[2,3-b]pyrrol-5-yl)-(4-methyl-piperazin-1-yl)-methanone], the Ki in experiment [1] (setting [2]) turned out to be 10 nM.
In the case of `O=C(c1cc2scc(Br)c2[nH]1)N1CCNCC1` [Example 19, (3-Bromo-4H-thieno[3,2-b]pyrrol-5-yl)-piperazin-1-yl-methanone], the inhibitory constant (Ki) in experiment [1] (setting [2]) came to 410 nM.
Regarding `CN1CCN(C(=O)c2cc3sc(Cl)c(Cl)c3[nH]2)CC1` [Example 25, (2,3-Dichloro-4H-thieno[3,2-b]pyrrol-5-yl)-(4-methyl-piperazin-1-yl)-methanone], the inhibition constant Ki in experiment [1] (setting [2]) was determined as 5.5 nM.
For the compound `CN1CCN(C(=O)c2cc3sc(Cl)cc3[nH]2)CC1` [Example 10, (2-Chloro-4H-thieno[3,2-b]pyrrol-5-yl)-(4-methyl-piperazin-1-yl)-methanone], the Ki in experiment [1] (setting [2]) and in experiment [1] (setting [3]) was 40 nM each time.
`CN1CCN(C(=O)c2cc3cc(Cl)sc3[nH]2)CC1` [Example 3, (2-Chloro-6H-thieno[2,3-b]pyrrol-5-yl)-(4-methyl-piperazin-1-yl)-methanone]: the Ki in experiment [1] (setting [2]) and in experiment [1] (setting [3]) was 25 nM each time.
With `O=C(c1cc2sccc2[nH]1)N1CCNCC1` [Example 8, Piperazin-1-yl-(4H-thieno[3,2-b]pyrrol-5-yl)-methanone], in experiment [1] (setting [2]), the Ki turned out to be 343 nM.
Regarding `CN(C)CCOC(c1ccccc1)c1ccccc1` [diphenhydramine], in the experiment with human eosinophils, the “effect on histamine-induced shape change” value is listed as “did not alter”. For the same compound, the “Fold Change” value in the experiment with human eosinophils (setting [4]) is 1.00; in the experiment on human eosinophils (setting [5]), 1.03; in the experiment with human eosinophils (setting [6]) it was 1.18; in the experiment with human eosinophils (setting [7]) it was 1.50; in the experiment with human eosinophils (setting [8]), 1.63.
Take `CN1CCN(C(=O)c2cc3occc3[nH]2)CC1` [Example 6, (4H-Furo[3,2-b]pyrrol-5-yl)-(4-methyl-piperazin-1-yl)-methanone]: in experiment [1] (setting [2]), the Ki was 840 nM.
On the same count and under the same terms, to `O=C(c1cc2sc(Cl)cc2[nH]1)N1CCN2CCCC2C1` (stereo not shown) [Example 11, (2-Chloro-4H-thieno[3,2-b]pyrrol-5-yl)-(hexahydro-pyrrolo[1,2-a]pyrazin-2-yl)-methanone] belongs 715 nM; to `Cc1oc2cc(C(=O)N3CCN(C)CC3)[nH]c2c1C` [Example 15, (2,3-Dimethyl-4H-furo[3,2-b]pyrrol-5-yl)-(4-methyl-piperazin-1-yl)-methanone], 140 nM; to `Cc1c(Cl)sc2cc(C(=O)N3CCN(C)CC3)[nH]c12` [Example 23, (2-Chloro-3-methyl-4H-thieno[3,2-b]pyrrol-5-yl)-(4-methyl-piperazin-1-yl)-methanone], 3 nM.
For `Cc1csc2cc(C(=O)N3CCN(C)CC3)[nH]c12` [Example 13, (4-Methyl-piperazin-1-yl)-(3-methyl-4H-thieno[3,2-b]pyrrol-5-yl)-methanone], the Ki in experiment [1] (setting [2]) and in experiment [1] (setting [3]) was 21 nM throughout. In addition, in the experiment on Mast cells (HR Antagonist 1 μM), the “% Inh” value is reported as 60%.
